{"source": "patent US6087358A", "about": "(priority 1997, dated 2000)", "key": {"[1]": {"system": "M. tuberculosis H37 Rv in human THP-1 macrophages", "experiment": "In vitro activity against M. tuberculosis in human macrophages (luciferase bioluminescence)", "assay_type": "cell-based, Mycobacterium tuberculosis, in human THP-1 cells"}, "Helicobacter pylori": {"system": "Helicobacter pylori", "experiment": "In vitro inhibition of Helicobacter pylori (broth microdilution MIC)", "conditions": "Helicobacter pylori"}}, "note": "Like-named read-outs stand apart in the source and are kept apart here.", "data": [{"smiles": "O=[N+]([O-])c1cn2c(n1)OC[C@@H](OCc1ccc(OC(F)(F)F)cc1)C2", "note": "[PA-824, 3S 4-(Trifluromethoxy)benzyloxy-6-nitro-2H-3,4-dihydro-[2-1b]imidazopyran]", "values": [{"measurement": "RLU values", "setting": "[1]; 0.06 μg/mL, day 1", "result": 25856, "unit": "RLU"}, {"measurement": "RLU values", "setting": "[1]; 0.06 μg/mL, day 2", "result": 93959, "unit": "RLU"}, {"measurement": "RLU values", "setting": "[1]; 0.06 μg/mL, day 3", "result": 109301, "unit": "RLU"}, {"measurement": "RLU values", "setting": "[1]; 0.06 μg/mL, day 4", "result": 118318, "unit": "RLU"}, {"measurement": "RLU values", "setting": "[1]; 0.06 μg/mL, day 7", "result": 138792, "unit": "RLU"}, {"measurement": "RLU values", "setting": "[1]; 0.13 μg/mL, day 1", "result": 16904, "unit": "RLU"}, {"measurement": "RLU values", "setting": "[1]; 0.13 μg/mL, day 2", "result": 40573, "unit": "RLU"}, {"measurement": "RLU values", "setting": "[1]; 0.13 μg/mL, day 3", "result": 29162, "unit": "RLU"}, {"measurement": "RLU values", "setting": "[1]; 0.13 μg/mL, day 4", "result": 27802, "unit": "RLU"}, {"measurement": "RLU values", "setting": "[1]; 0.13 μg/mL, day 7", "result": 28699, "unit": "RLU"}, {"measurement": "RLU values", "setting": "[1]; 0.25 μg/mL, day 1", "result": 15814, "unit": "RLU"}, {"measurement": "RLU values", "setting": "[1]; 0.25 μg/mL, day 2", "result": 18064, "unit": "RLU"}, {"measurement": "RLU values", "setting": "[1]; 0.25 μg/mL, day 3", "result": 13413, "unit": "RLU"}, {"measurement": "RLU values", "setting": "[1]; 0.25 μg/mL, day 4", "result": 8684, "unit": "RLU"}, {"measurement": "RLU values", "setting": "[1]; 0.25 μg/mL, day 7", "result": 6437, "unit": "RLU"}, {"measurement": "RLU values", "setting": "[1]; 0.5 μg/mL, day 1", "result": 10021, "unit": "RLU"}, {"measurement": "RLU values", "setting": "[1]; 0.5 μg/mL, day 2", "result": 9610, "unit": "RLU"}, {"measurement": "RLU values", "setting": "[1]; 0.5 μg/mL, day 3", "result": 6579, "unit": "RLU"}, {"measurement": "RLU values", "setting": "[1]; 0.5 μg/mL, day 4", "result": 5068, "unit": "RLU"}, {"measurement": "RLU values", "setting": "[1]; 0.5 μg/mL, day 7", "result": 2957, "unit": "RLU"}, {"measurement": "RLU values", "setting": "[1]; 1.0 μg/mL, day 1", "result": 8197, "unit": "RLU"}, {"measurement": "RLU values", "setting": "[1]; 1.0 μg/mL, day 2", "result": 5588, "unit": "RLU"}, {"measurement": "RLU values", "setting": "[1]; 1.0 μg/mL, day 3", "result": 3950, "unit": "RLU"}, {"measurement": "RLU values", "setting": "[1]; 1.0 μg/mL, day 4", "result": 2686, "unit": "RLU"}, {"measurement": "RLU values", "setting": "[1]; 1.0 μg/mL, day 7", "result": 1986, "unit": "RLU"}, {"measurement": "RLU values", "setting": "[1]; 2.0 μg/mL, day 1", "result": 4571, "unit": "RLU"}, {"measurement": "RLU values", "setting": "[1]; 2.0 μg/mL, day 2", "result": 3833, "unit": "RLU"}, {"measurement": "RLU values", "setting": "[1]; 2.0 μg/mL, day 3", "result": 2567, "unit": "RLU"}, {"measurement": "RLU values", "setting": "[1]; 2.0 μg/mL, day 4", "result": 1507, "unit": "RLU"}, {"measurement": "RLU values", "setting": "[1]; 2.0 μg/mL, day 7", "result": 1217, "unit": "RLU"}, {"measurement": "minimal effective concentration", "setting": "[1]; Mycobacterium tuberculosis, H37RV, human THP-1 macrophages, read-out: concentrations sufficient to prevent intracellular growth of M. tuberculosis", "result": "≥ 0.25", "unit": "µg/mL"}, {"measurement": "dose-related response", "setting": "[1]; concentrations up to 2.0 μg/ml", "result": "A clear dose-related response"}, {"measurement": "MIC", "setting": "Helicobacter pylori; 72 h, read-out: MIC against Helicobacter pylori, strain 17 (Table 5A)", "result": "> 25", "unit": "µg/mL"}, {"measurement": "MIC", "setting": "Helicobacter pylori; 72 h, read-out: MIC against Helicobacter pylori, strain 19 (Table 5A)", "result": 0.4, "unit": "µg/mL"}, {"measurement": "MIC", "setting": "Helicobacter pylori; 72 h, read-out: MIC against Helicobacter pylori, strain 20 (Table 5A)", "result": 0.2, "unit": "µg/mL"}, {"measurement": "MIC", "setting": "Helicobacter pylori; 72 h, read-out: MIC against Helicobacter pylori, strain 40 (Table 5A)", "result": 0.4, "unit": "µg/mL"}, {"measurement": "MIC", "setting": "Helicobacter pylori; 72 h, read-out: MIC against Helicobacter pylori, strain 43 (Table 5A)", "result": 0.8, "unit": "µg/mL"}, {"measurement": "MIC", "setting": "Helicobacter pylori; 72 h, read-out: MIC against Helicobacter pylori, strain 76 (Table 5A)", "result": 12.5, "unit": "µg/mL"}, {"measurement": "MIC", "setting": "Helicobacter pylori; ATCC43504, 72 h, read-out: MIC against Helicobacter pylori, strain ATCC 43504 (Table 5A)", "result": "> 25", "unit": "µg/mL"}]}]}
